Among the data in patent US20070275953A1 (priority 2003, published 2007) are CC50 and EC50 values, retold here.

Common to all, as to type: cell-based
Series [1] in a line: Cytotoxicity (CC50), MTT assay on P4 cells. To be noted: human. The method, then: For the antiviral and the cytotoxicity assays, the drugs were diluted in complete DMEM medium. In these experiments, drugs were diluted in triplicate wells in a 96-well plate in six, 5 fold serial dilutions.
The 50% cytotoxic concentration (CCso) was determined using a protocol adapted from Pauwels et al. (1988. J. Virol. Methods 20(4):309-21). Briefly, flat bottom 96-well plates were filled with 50 μl of complete medium containing 5.10^3 P4 cells. 2 hours later 50 μl of drug solution were added to the cells. Drugs (dissolved in DMEM, see above) were diluted in six, 5-fold serial dilutions from stock solutions in triplicate wells of a 96-well plate. Cells and compounds were incubated at 37° C. in growth medium for 3 days. Cell viability was determined by MTT assays using the Roche Cell Proliferation KIT. The absorbance (λ=570 nm) was measured on a Benchmark™ Microplate Reader (Biorad) and compared with 12 cell control replicates (no drug added). Each assay was performed at least three times for a total of at least nine replicate wells. This method detects both cytostatic and cytolytic effects of drugs.
For orientation: Tetrazolium assays rely on reduction of a dye to a coloured formazan, in cell work by metabolically active cells.

Series [2] relates to HIV-1 mutant Cys188RT in TZM-bl cells. Kind of series: Anti-HIV assay on TZM-bl cells, Cys188RT mutant. To be noted: read-out: EC50 Cys188RT TZM-bl. From the text:
(§1) In order to introduce mutation(s) at the level of the pol gene coding for the RT in the pNL4-3 plasmid containing the complete viral genome (Adachi et al., 1986. J. Virol., Vol. 59 p 284-291) we used the “Quick change mutagenesis kit” (Stratagene). The following mutations were separately introduced in pNL4-3: L100I, K103N, V108I, Y181C, Y188C, and the double mutations K103N/V108I. These mutations were chosen because of the resistance that they confer to existing NNRTI. The production procedure of the mutant viral stocks is identical to the one described above.
(§2) Anti-HIV activity and cytotoxicity of the compounds were tested on the TZM-b1 cell line. The TZM-b1 cell line (Wei et al. 2002. Antimicrob. Agents Chemother. Vol. 46, p 1896-1905) was received from the NIH AIDS Research and Reference Reagent Program. These cells were cultured in complete DMEM medium supplemented with 10% fetal bovine serum (FBS), and 1% Penicillin/Streptomycin. Exponentially growing cells were trypsinized, centrifuged and split twice weekly at 5 10^4 cells/ml.
(§3) The anti-HIV assay with TZM-b1 cells is essentially the same as described above with P4 cells. The main difference between the two cell lines is that the TZM-b1 cells express at their surface both the CD4 and CCR5 proteins, acting as receptor and co-receptor for HIV entry, respectively (Wei et al. 2002. Antimicrob. Agents Chemother. Vol. 46, p 1896-1905). This feature makes the cells very sensitive to infection by the virus. The TMZ-b1 cells were infected with equal amount of cell-free virus, corresponding to 10 ng of HIV p24 antigen. This amount is ten times lower than the amount used to infect the P4 cells.

For series [3], the system named is HIV-1 mutant Asn103/Ile108RT in TZM-bl cells. Kind of series: Anti-HIV assay on TZM-bl cells, Asn103/Ile108RT double mutant. The note with it: read-out: EC50 Asn103/Ile108RT TZM-bl.
Text: as §1, §2, §3

The test system of series [4] is HIV-1 with WT (wild type) RT in PBMC. Kind of series: Anti-HIV assay on PBMC, WT RT (p24). The method, then: Wurzburg Jurkat T cells (subclone JR) were transfected with 10 μg of the circularly permuted infectious molecular clone HIVNL4-3 (Adachi et al., 1986. J. Virol, 59 (2), p 284-291). Two days later, co-cultivation with SupT1 cells (a human T-cell lymphoma cell line) was initiated to facilitate rapid production of progeny virions. Production of virus was measured by using the Innotest HIV Antigen mAb p24 kit (Innogenetics). At the peak of production cultures were harvested and filtered. The virus stocks were stored at −80° C. until used.
Anti-HIV activity of the compounds was tested on Peripheral Blood Mononuclear Cells (PBMCs). These cells were separated from the blood of healthy donor using established procedures. PBMCs were cultured in RPMI medium supplemented with 10% fetal bovine serum (FBS), 1% Penicillin/Streptomycin and 20 U/ml of Interleukin-2.
PBMCs isolated from the blood of healthy donor contain CD4^+ T-lymphocytes which are one of the main targets of HIV in infected individuals.
Briefly, in the anti-HIV assay PBMCs, activated with phytohemagglutinin, were infected with HIV-1. 100 μl of infected PBMCs were seeded in 96-well plate at a concentration of 1 10^5 cells/ml, and 100 μl of the different drugs dilutions were added to the cells. After 4 days of incubation at 37° C., 5% CO2, cells cultures supernatants were collected. The amount of the viral capsid protein p24 in the supernatants was measured using the Innotest HIV Antigen mAb P24 kit (Innogenetics).

For series [5], the system named is HIV-1 mutant Asn103RT in P4 cells. Kind of series: Anti-HIV assay on P4 cells, Asn103RT mutant.
Text: as §1
Anti-HIV activity and cytotoxicity of the compounds were tested on a P4 cell line. The P4 cell line (Clavel & Charneau, 1994. J. Virol., Vol. 68 p 1179-1185) was provided by Dr. François Clavel (Unité de recherche antivirale de l'hôpital Xavier Bichat Paris: Inserm). The P4 cells were cultured in complete DMEM medium supplemented with 10% fetal bovine serum (FBS), 0.5% of Penicillin/Streptomycin and G418 at 0.5 mg/ml. Exponentially growing cells were trypsinized, centrifuged and split twice weekly at 5.10^4 cells/ml.
The P4 cells are HIV-infectible Hela-CD4 cells that carry the bacterial lacZ gene under the control of the HIV-1 long terminal repeat (LTR). In this cell line, transcription of the LacZ gene is driven by the HIV-1 LTR. […]
Briefly, in the anti-HIV assay 100 Ål of P4 cells were plated in 96-well plate at a concentration of 0.4 10^5 cells/ml and incubated at 37° C., 5% CO2. […] After 48 h of incubation at 37° C., 5% CO2, β-galactosidase activity was measured using chlorophenol red-β-D-galactopyranoside assays.
The absorbance was measured on a Benchmark™ Microplate Reader (Biorad) (λ=570 nm) and compared with 12 cell control replicates (no virus or drug added) and 12 virus control wells (no drug added). […] The 50% effective concentration (Ec50) was calculated from each dose response curve using the CurveExpert 1.3 software. […]

The mark [6] stands for this setting: Human immunodeficiency virus 1, TZM-bl.
The mark [7] stands for this setting: Human immunodeficiency virus 1, read-out: EC50 Asn103RT P4.
Where [8] appears, read: TZM-bl, double mutant Asn103/Ile108RT.

Where two headings read alike, the source gives them in different places.

By CC50 is commonly meant the concentration giving 50% cytotoxicity. The compound `O=C1Nc2ccc(Cl)cc2[C@@](C#CC2CC2)(C(F)(F)F)O1` [Efavirenz, reference compound] returned a CC50 at 3 days in series [1] of 40 µM. Besides, the EC50 in series [2] (setting [6]) is less than 0.001 µM; in series [3] (setting [6]), 0.15 µM.

In series [1], `Cc1ccnc2c1NC(=O)c1cccnc1N2C1CC1` [Nevirapine, reference compound] returned a CC50 at 3 days greater than 100 µM. The EC50 turned out to be 0.03 µM in series [4] (Human immunodeficiency virus 1), 2.72 µM in series [2] (setting [6]) and 1.71 µM in series [5] (setting [7]).

`CCOC(=O)c1c(OC2CC(C)CC(C)C2)c(CC)c(C)[nH]c1=O` (single isomer, unassigned) [Z37inv] gave an EC50 in series [4] of 0.054 µM.

Take `CCc1c(C)[nH]c(=O)c(N(C)C)c1OC1CC(C)CC(C)C1` (stereo not drawn) [Z150, 3-(dimethylamino)-5-ethyl-6-methyl-4-[(3,5-dimethylcyclohexyl)oxy]pyridine-2(1H)-one]: in series [1], the CC50 at 3 days amounted to 66 µM. In addition, the EC50 was less than 0.001 µM in series [2] (setting [6]) and 0.158 µM in series [3] (setting [6]).

`CCc1c(C)[nH]c(=O)c(CO)c1OC1CC(C)CC(C)C1` (stereo not drawn) [Z45inv] registered an EC50 in series [4] of 0.018 µM.

In turn, `CCc1c(C)[nH]c(=O)c([N+](=O)[O-])c1OC1CC(C)CC(C)C1` (stereo not drawn) [Z91inv, 3-nitro-5-ethyl-6-methyl-4-[(3,5-dimethylcyclohexyl)oxy]pyridine-2(1H)-one] displayed a CC50 at 3 days in series [1] of 37.2 µM. For the same compound, the EC50 in series [4] (Human immunodeficiency virus 1) is less than 0.001 µM; in series [5] (setting [7]) it was 0.089 µM.

For `CCc1c(C)[nH]c(=O)c(C)c1OC1CC(C)CC(C)C1` (stereo not drawn) [Z154], in series [3] (setting [8]), the EC50 was 0.231 µM.

Turning to `CCc1c(C)[nH]c(=O)c(CSC(C)=O)c1OC1CC(C)CC(C)C1` (stereo not drawn) [Z114], the EC50 is less than 0.001 µM in series [4]; 0.001 µM in series [2] (TZM-bl, mutant Cys188RT); 0.643 µM in series [5] (P4, mutant Asn103RT, read-out: EC50 Asn103RT P4).

Consider `CCc1c(C)[nH]c(=O)c(CN=[N+]=[N-])c1OC1CC(C)CC(C)C1` (stereo not drawn) [Z153], for which the EC50 in series [2] (TZM-bl, mutant Cys188RT) is less than 0.001 µM; in series [3] (setting [8]), 0.366 µM.
